In PMC2099433, “The binding site for neohesperidin dihydrochalcone at the human sweet taste receptor” (BMC Structural Biology, 2007):
Substitutions are numbered along the chain they refer to. Where a SMILES comes first, the peptide text is derived from it.

Assays:
[1] = target: T1, hTAS1R2 + hTAS1R3 F730L^5.43 (Homo sapiens, UniProt Q7RTX0+Q8TE23, F730L); assay: Calcium response (FLIPR), hTAS1R3 mutant coexpressed with hTAS1R2; format: cell-based; settings: variant F730L^5.43; for Emax: read-out: maximal signal (% of wt)
T1 construct: expressed in transfected cells; host or cells: HEK293T cells stably expressing G16Gust44
T1 sequence (Q8TE23 20-839): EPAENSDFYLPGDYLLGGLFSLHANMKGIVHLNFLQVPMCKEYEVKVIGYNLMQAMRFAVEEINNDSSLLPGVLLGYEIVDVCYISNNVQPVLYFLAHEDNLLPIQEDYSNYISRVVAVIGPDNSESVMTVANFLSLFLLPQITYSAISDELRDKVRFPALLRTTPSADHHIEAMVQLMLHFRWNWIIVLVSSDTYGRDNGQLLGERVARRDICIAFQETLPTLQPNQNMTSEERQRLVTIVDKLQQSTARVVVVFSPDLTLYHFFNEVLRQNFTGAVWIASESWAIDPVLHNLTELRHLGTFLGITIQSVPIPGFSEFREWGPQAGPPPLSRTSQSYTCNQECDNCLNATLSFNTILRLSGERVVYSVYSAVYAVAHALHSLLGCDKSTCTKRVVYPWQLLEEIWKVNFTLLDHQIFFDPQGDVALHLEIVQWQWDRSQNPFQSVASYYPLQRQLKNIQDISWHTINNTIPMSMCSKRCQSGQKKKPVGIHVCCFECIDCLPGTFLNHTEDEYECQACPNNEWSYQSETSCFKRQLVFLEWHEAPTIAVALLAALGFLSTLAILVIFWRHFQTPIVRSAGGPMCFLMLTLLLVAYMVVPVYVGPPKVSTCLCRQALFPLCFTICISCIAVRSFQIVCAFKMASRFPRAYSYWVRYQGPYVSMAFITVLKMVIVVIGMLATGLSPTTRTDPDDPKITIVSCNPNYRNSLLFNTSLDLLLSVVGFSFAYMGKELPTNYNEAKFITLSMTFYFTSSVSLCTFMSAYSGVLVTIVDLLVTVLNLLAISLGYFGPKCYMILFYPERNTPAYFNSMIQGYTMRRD
T1 sequence (Q7RTX0 21-852 F730L): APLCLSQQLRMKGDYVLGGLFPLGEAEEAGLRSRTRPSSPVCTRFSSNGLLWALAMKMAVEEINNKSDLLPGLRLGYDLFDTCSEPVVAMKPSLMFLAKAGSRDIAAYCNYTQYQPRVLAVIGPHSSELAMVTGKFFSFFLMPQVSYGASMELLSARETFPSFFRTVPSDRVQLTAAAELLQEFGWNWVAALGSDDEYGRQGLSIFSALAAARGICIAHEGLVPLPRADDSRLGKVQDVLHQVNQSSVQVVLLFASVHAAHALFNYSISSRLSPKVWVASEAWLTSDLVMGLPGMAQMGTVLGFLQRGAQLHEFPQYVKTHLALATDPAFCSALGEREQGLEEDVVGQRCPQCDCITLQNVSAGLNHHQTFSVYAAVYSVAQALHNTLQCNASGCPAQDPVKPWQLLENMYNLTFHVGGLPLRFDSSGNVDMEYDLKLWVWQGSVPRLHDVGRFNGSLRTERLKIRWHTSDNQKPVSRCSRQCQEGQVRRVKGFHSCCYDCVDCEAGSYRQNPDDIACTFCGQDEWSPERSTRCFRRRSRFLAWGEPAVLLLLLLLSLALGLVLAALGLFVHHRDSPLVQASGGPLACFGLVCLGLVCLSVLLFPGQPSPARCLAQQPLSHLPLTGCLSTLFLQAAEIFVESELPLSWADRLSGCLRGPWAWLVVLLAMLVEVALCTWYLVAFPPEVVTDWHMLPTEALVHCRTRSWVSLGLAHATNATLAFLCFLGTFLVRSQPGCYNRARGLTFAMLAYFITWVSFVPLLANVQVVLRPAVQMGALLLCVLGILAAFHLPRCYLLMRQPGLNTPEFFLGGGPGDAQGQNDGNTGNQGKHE
Summary of the method: (§1)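 Each mutant receptor pair was expressed transiently in G16Gust44-expressing HEK293T cells; stimuli dissolved in C1 solution triggered calcium responses, recorded by fluorometric imaging and scaled to baseline fluorescence (ΔF/F) after mock correction, from at least three experiments run in duplicate.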

[2] = target: T2, hTAS1R2 + hTAS1R3 S729A^5.42 (Homo sapiens, UniProt Q7RTX0+Q8TE23, S729A); assay: as above; format: cell-based; settings: variant S729A^5.42; for Emax: read-out: maximal signal (% of wt)
T2 construct: expressed in transfected cells; host or cells: HEK293T cells stably expressing G16Gust44
T2 sequence (Q8TE23 20-839): T1 sequence (Q8TE23 20-839)
T2 sequence (Q7RTX0 21-852 S729A): T1 sequence (Q7RTX0 21-852 F730L) with S709A, L710F
Summary of the method: as §1

SMILES	EC50 [1]	Emax [1]	EC50 [2]	Emax [2]
COc1ccc(CCC(=O)c2c(O)cc(O[C@@H]3O[C@H](CO)[C@@H](O)[C@H](O)[C@H]3O[C@@H]3O[C@@H](C)[C@H](O)[C@@H](O)[C@H]3O)cc2O)cc1O [NHDC, neohesperidin dihydrochalcone]	900 ± 100 µM	70 ± 18%	200 ± 100 µM	80 ± 16%
COC(=O)[C@H](Cc1ccccc1)NC(=O)[C@@H](N)CC(=O)O [aspartame] (HELM PEPTIDE1{D.F.[CO[*:1]]}$$$$V2.0)	1700 ± 400 µM	87 ± 27%	900 ± 400 µM	72 ± 20%
